Values of other authors, collected in patent US20130280259A1, “USE OF ANTIBODIES AGAINST NK1, NK2 AND/OR NK3 RECEPTORS IN CANCER TREATMENT” (SERVICIO ANDALUZ DE SALUD, priority 2010, published 2013).

Tested on: advanced pancreatic cancer, advanced gastric cancer, glioblastoma, breast cancer
Conditions: breast cancer after first-line chemotherapy (Procc ASCO 1999-2002); cited from earlier work

In the case of CNC(=O)[C@@H](NC(=O)[C@H](CC(C)C)[C@H](O)C(=O)NO)C(C)(C)C [Marimastat], the “Efficacy for the treatment of cancer” value is listed as “effective”.
